# Earlier results as cited in US8080517B2, “Cell-permeable peptide inhibitors of the JNK signal transduction pathway” (Xigen SA, priority 2005, dated 2011).
# Columns and labels:
# [1] = transient global ischemia; cited from earlier work
# [2] = system: chick embryonic dorsal root ganglion, sympathetic, ciliary and motor neurons; settings: cited from earlier work
# [3] = system: primary embryonic cultures and differentiated PC12 cells; settings: after trophic withdrawal; also in mice treated with 1-methyl-4-phenyl tetrahydropyridine; cited from earlier work
Structure (SMILES),delayed loss of hippocampal CA1 neurons [1],long term-survival of cultured neurons [2],neuronal survival [3]
N#CC(c1ccnc(NCCc2cccnc2)n1)c1nc2ccccc2s1 (stereo not drawn) [AS601245],significant protection against the delayed loss of hippocampal CA1 neurons,,
CCSCc1ccc2c(c1)c1c3c(c4c5cc(CSCC)ccc5n5c4c1n2[C@H]1C[C@](O)(C(=O)OC)[C@]5(C)O1)CNC3=O [CEP-1347],,can promote long term-survival,promotes neuronal survival at dosages that inhibit activation of the c-Jun amino-terminal kinases (JNKs)
